Earlier results on two compounds are cited in patent US10822295B2, “Menaquinol compositions and methods of treatment” (Epizon Pharma, Inc., priority 2018, dated 2020).

The test system of one series is incidence of fractures. The settings on record: in vivo.
Another series deals with normal blood coagulation. To be noted: compared to vitamin K1 and MK-4.
For series [1] the following is noted: compared to MK-4.

On to `CC(C)=CCC/C(C)=C/CC/C(C)=C/CC/C(C)=C/CC1=C(C)C(=O)c2ccccc2C1=O` [MK-4, menaquinone-4], for which, in the series with incidence of fractures, the incidence of fractures result is listed as “decrease the incidence of fractures”.
In the case of `CC(C)=CCC/C(C)=C/CC/C(C)=C/CC/C(C)=C/CC/C(C)=C/CC/C(C)=C/CC/C(C)=C/CC1=C(C)C(=O)c2ccccc2C1=O` [MK-7, menaquinone-7], the “effects on normal blood coagulation” value in the series with normal blood coagulation is “greater and longer lasting”. Also, in series [1], the half-life in serum result is given as “long half-life”.
